Assays:
[1] = biological target: Sterol 14-alpha demethylase (Trypanosoma cruzi (strain CL Brener), UniProt Q7Z1V1); test: Inhibition of Trypanosoma cruzi CYP51
Trypanosoma cruzi = test: Antitrypanosomal activity against Trypanosoma cruzi; assay type: functional, organism-based

Chain of Sterol 14-alpha demethylase (Q7Z1V1 whole entry): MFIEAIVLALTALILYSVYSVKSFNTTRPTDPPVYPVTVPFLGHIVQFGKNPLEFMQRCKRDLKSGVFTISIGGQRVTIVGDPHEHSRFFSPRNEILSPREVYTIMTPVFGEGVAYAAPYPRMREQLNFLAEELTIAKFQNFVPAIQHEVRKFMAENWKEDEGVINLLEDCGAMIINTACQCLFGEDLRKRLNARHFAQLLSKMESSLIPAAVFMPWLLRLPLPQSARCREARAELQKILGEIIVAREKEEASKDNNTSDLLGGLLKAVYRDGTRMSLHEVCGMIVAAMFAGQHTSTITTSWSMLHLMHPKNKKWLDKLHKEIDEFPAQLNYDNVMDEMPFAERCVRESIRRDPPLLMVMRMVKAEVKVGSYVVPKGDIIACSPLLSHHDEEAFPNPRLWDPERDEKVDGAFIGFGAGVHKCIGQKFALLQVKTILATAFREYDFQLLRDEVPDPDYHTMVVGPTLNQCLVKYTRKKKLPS

IC50 [1] [nM] | EC50 (Trypanosoma cruzi) [nM] | Compound
34 |  | CCC(=O)CCCCCC(Oc1ccc2ccccc2c1)c1ncc(Cc2ccncc2)[nH]1 (stereo in doubt; 35)
77 |  | CC(OCc1ccncc1)c1ncc(-c2ccc3ccccc3c2)[nH]1 (centres undefined)
 | 2000 | O=C(Cn1ccnc1[N+](=O)[O-])NCc1ccccc1 [BENZNIDAZOLE]

The next lines start with the compound.

Compound | IC50 [1] [nM] | EC50 (Trypanosoma cruzi) [nM]
CCC(=O)CCCCCC(OCc1ccncc1)c1ncc(-c2ccc3ccccc3c2)o1 (centres undefined) | 53 | 
CCC(=O)CCCCCC(Oc1ccc2ccccc2c1)c1ncc(Cc2ccncc2)[nH]1 (stereo in doubt; 11) | 52 | 
CCC(=O)CCCCCC(Oc1cc2ccccc2nc1OC)c1ncc(Cc2ccncc2)[nH]1 (centres undefined) |  | 2000
CCC(=O)CCCCCC(Oc1ccc2ccccc2c1)c1ncc(Cc2ccccc2)[nH]1 (centres undefined) | 2900 | 
CCC(=O)CCCCCC(Oc1ccc2ccccc2c1)c1ncc(Cc2ccncc2)[nH]1 (stereo in doubt; 34) | 41 | 
CC1CS(=O)(=O)CCN1/N=C/c1ccc([N+](=O)[O-])o1 (centres undefined) [NIFURTIMOX] |  | 8000

Source: ChEMBL document CHEMBL4627311, “Discovery of 4-((1-(1H-imidazol-2-yl)alkoxy)methyl)pyridines as a new class of Trypanosoma cruzi growth inhibitors” (Bioorg Med Chem Lett, 2020)
